Experimental data as given in patent EP0199451B1, “Therapeutic nucleosides” (THE WELLCOME FOUNDATION LIMITED, priority 1985, dated 1986).
Several values for one entry are separate records, joined by “and”; a condition that tells them apart may be missing. Identical values can stand only once.

Columns and labels:
[1] = Toxicity assay (LD50) in mice; settings: mouse, in vivo
Procedure: (§1) The LD₅₀ value was in excess of 750 mg/kg in both species.

[2] = Toxicity assay (LD50) in rats; settings: rat, in vivo
Procedure: as §1

[3] = tested on: feline leukaemia virus (FeLV); experiment: In vitro anti-feline leukaemia virus activity, indirect fluorescent antigen test in FLF-3 cells; assay type: cell-based, feline embryo lung fibroblasts (FLF-3); settings: 3 days incubation at 37°C
Procedure: (§2) • (i) In Vitro Activity Susceptible feline embryo lung fibroblasts (FLF-3) were seeded onto multiwell slides (10⁵ cells/ml, 0.05ml/well) with Dulbecco-modified Eagle's essential medium (DME) and incubated at 37°C overnight. […] Concentrations were […]. After 3 days incubation at 37°C, the cultures were assayed by the indirect fluorescent antigen test for the production of FeLV. […] Two cats (a) received 15mg/kg/day, three (b) received 30mg/kg/day and another two (c) received 45mg/kg/day. All doses were administered as three equal doses daily. Of cats (a), only one responded to treatment at all, showing a 10% decrease in FeLV⁺ white blood cells (wbc's). Cats (b) (after 6 weeks) all responded to treatment showing a 10% and 90% drop in Fel_V⁺ wbc's. […] All measurements were taken after 3 weeks therapy, unless otherwise stated.

FeLV = experiment: In vivo anti-feline leukaemia virus activity in persistently infected cats
Procedure: as §2

## Cc1cn([C@H]2C[C@H](N=[N+]=[N-])[C@@H](CO)O2)c(=O)[nH]c1=O
[1]
  LD50: > 750 mg/kg
[2]
  LD50: > 750 mg/kg
[3]; 50µM and above
  production of FeLV: Complete absence of FeLV
[3]; 0.1µm
  activity: no activity
[3]; 1µm
  inhibition: 50-75%
[3]; 72 h, 10µM
  inhibition at 10 µM: 90%
FeLV; cats (a), intravenous 15mg/kg/day in three equal doses daily, after 3 weeks, only one of two cats responded
  decrease in FeLV+ white blood cells (wbc's): 10%
FeLV; cats (b), intravenous 30mg/kg/day in three equal doses daily, after 6 weeks, individual cats, 30 mg/kg/day
  drop in FeLV+ wbc's: 10% and 90% and 5%
FeLV; cats (b), third cat, intravenous 30mg/kg/day, after 6 weeks
  drop in plasma levels of free FeLV: hundred-fold
FeLV; cats (c), intravenous 45mg/kg/day in three equal doses daily, after 3 weeks, one of two cats
  decrease in FeLV+ wbc's: 10%
FeLV; cats (c), intravenous 45mg/kg/day, after 3 weeks, one cat
  reduction in lymphadenopathy: from 2 cm to 0.5 cm
FeLV; cats (c), intravenous 45mg/kg/day, after 3 weeks, the other of two cats
  response to treatment: no response
